Results taken from patent US10702525B1, “Pyrimidine derivatives as anti-diabetic agents” (UNITED ARAB EMIRATES UNIVERSITY, priority 2019, dated 2020).

Assays:
[1] = tested on: βTC6 cells; assay: Insulin secretion from βTC6 cell line (insulin Sandwich ELISA); format: cell-based, murine; conditions: for glucose-stimulated insulin release compared to basal controls (summary statement) / insulin secretion compared to the basal control / insulin secretion compared to basal insulin secretion and to insulin secretion in the presence of glucose: βTC6 cells; for insulin secretion compared to the basal control: absence of glucose; for insulin secretion compared to the basal control / insulin secretion compared to basal insulin secretion and to insulin secretion in the presence of glucose: 10^−15 M, 10^−12 M and 10^−9 M; for insulin secretion compared to basal insulin secretion and to insulin secretion in the presence of glucose: presence of 2.8 mM glucose
Protocol: Secretion of insulin by βTC6 cells was measured using the high range insulin Sandwich ELISA kit.

[2] = tested on: Streptozotocin-injected (STZ) diabetic rats; assay: Fasting blood glucose level of STZ diabetic rats; format: in vivo, rat; conditions: for reduction in blood glucose level compared to control diabetic groups: 6 and 8 hours after treatment, n=6
Excerpt: These symptoms indicate the development of diabetes characterized by chronic and persistently elevated plasma glucose level. STZ induces diabetes by selectively destroying the insulin producing pancreatic endocrine cells. Decreased body weight in STZ-induced diabetic rats is believed to be caused by dehydration, and by breakdown and catabolism of fats and proteins. Increased catabolic reactions upon administering STZ result in muscle wasting, and subsequently, body weight loss.
Compounds 81c, 81f, 82c, and 82d, synthesized as described in Examples 1, 2, 5, and 6 were orally administrated to the treated groups of diabetic rats at a dose of 1.0 μM/kg. Fasting glucose levels in treated and control rat blood were followed over 8.0 hours. […] Compounds 82c and 82d were also tested in vivo (FIGS. 1C, 1D). […] In FIGS. 1A-1D the results are means±SEM, where n=6 rats; *P<0.05, **P<0.01, and ***P<0.001 vs. the STZ diabetic control group.

[3] = tested on: βTC6 cells; assay: Glucose uptake assay (2-NBDG) in βTC6 cells; format: cell-based, murine; conditions: 10 μM sample, 450 μM 2-NBDG, ten minutes
Protocol: The glucose uptake assay was performed with a cell-based assay kit by incubating 450 μM 2-[N-(7-nitrobenz-2-oxa-1,3-diaxol-4-yl)amino]-2-deoxyglucose (2-NBDG, a fluorescently labelled deoxyglucose analog) and a 10 μM sample of the reference drug or the test compound with βTC6 cells for ten minutes and subsequently measuring the fluorescence at excitation and emission wavelengths of 485 nm and 535 nm, respectively, with a TECAN infinite M200 micro plate reader.

[4] = oral, 1.0 μM/kg, STZ diabetic rats

| melting point | SMILES | glucose-stimulated insulin release compared to basal controls (summary statement) [1] | fasting blood glucose levels in diabetic rat models (summary statement) [2] | effect on blood glucose levels (not statistically significant) ([2]; oral, 1.0 μM/kg, followed over 8.0 hours, STZ diabetic rats) | insulin secretion compared to the basal control [1] | insulin secretion compared to basal insulin secretion and to insulin secretion in the presence of glucose [1] | insulin secretion effect relative to exenatide ([1]; βTC6 cell line) | glucose uptake compared to the standard reference exenatide [3] | anti-diabetic potency ranking ([2]; in vivo and in vitro results taken together) | reduction in blood glucose level compared to control diabetic groups [2, 4] | potency in reducing the blood glucose level ([2]; oral, 1.0 μM/kg, at 8 hours, STZ diabetic rats) |
| --- | --- | --- | --- | --- | --- | --- | --- | --- | --- | --- | --- |
|  | Clc1cc(N2CCOCC2)ncn1 [Compound 82d, 4-(6′-Chloropyrimidin-4′-yl)morpholine] | increase glucose-stimulated insulin release | decrease fasting blood glucose levels | reduced blood glucose levels |  |  |  |  |  |  |  |
| 136 °C | CN(CCO)c1ccnc(Cl)n1 [Compound 81c, 2-[(2′-Chloropyrimidin-4′-yl)-methylamino]ethanol] | increase glucose-stimulated insulin release | decrease fasting blood glucose levels |  | significantly stimulated insulin secretions | stimulated insulin secretion significantly | comparable effects to exenatide | remarkable potential to flush glucose into the βTC6 cells | most potent anti-diabetic compound | significant reduction in blood glucose level | high potency in reducing the blood glucose level |
|  | CN(CCO)c1cc(Cl)ncn1 [Compound 82c, 2-[(6′-Chloropyrimidin-4′-yl)(methylamino)]ethanol] | increase glucose-stimulated insulin release | decrease fasting blood glucose levels |  | significantly stimulated insulin secretions | stimulated insulin secretion significantly |  | remarkable potential to flush glucose into the βTC6 cells |  | statistically significant reduction in blood glucose level |  |
| 116 to 117 °C | OCCNc1ccnc(Cl)n1 [Compound 81f, 2-[(2′-Chloropyrimidin-4′-yl)amino]ethanol] | increase glucose-stimulated insulin release | decrease fasting blood glucose levels |  | significantly stimulated insulin secretions | stimulated insulin secretion significantly |  | remarkable potential to flush glucose into the βTC6 cells |  | significant reduction in blood glucose level |  |
